Test results as given in ChEMBL document CHEMBL1143262, “1-Oxo-3-substitute-isothiochroman-4-carboxylic acid compounds: synthesis and biological activities of FAS inhibition” (Bioorg Med Chem Lett, 2009).
pIC50: −log10 of the molar value.

Columns and labels:
[1] = target: Fatty acid synthase (Rattus norvegicus, UniProt P12785); test: Inhibition of Sprague-Dawley rat liver fatty acid synthase
[2] = Cytotoxicity against HLF by MTT assay; settings: human, HLF cells; read-out: TC50 (the source's name)
[3] = system: fatty acid synthase; test: Therapeutic index, ratio of TC50 for HLF to IC50 for Sprague-Dawley rat liver fatty acid synthase; settings: human (HLF cells), HLF cells versus rat liver fatty acid synthase
[4] = target: Fatty acid synthase (Rattus norvegicus) (UniProt P12785); test: Inhibition of Sprague-Dawley rat liver fatty acid synthase at 60 umol
Sequence of Fatty acid synthase (Rattus norvegicus) (P12785 whole entry): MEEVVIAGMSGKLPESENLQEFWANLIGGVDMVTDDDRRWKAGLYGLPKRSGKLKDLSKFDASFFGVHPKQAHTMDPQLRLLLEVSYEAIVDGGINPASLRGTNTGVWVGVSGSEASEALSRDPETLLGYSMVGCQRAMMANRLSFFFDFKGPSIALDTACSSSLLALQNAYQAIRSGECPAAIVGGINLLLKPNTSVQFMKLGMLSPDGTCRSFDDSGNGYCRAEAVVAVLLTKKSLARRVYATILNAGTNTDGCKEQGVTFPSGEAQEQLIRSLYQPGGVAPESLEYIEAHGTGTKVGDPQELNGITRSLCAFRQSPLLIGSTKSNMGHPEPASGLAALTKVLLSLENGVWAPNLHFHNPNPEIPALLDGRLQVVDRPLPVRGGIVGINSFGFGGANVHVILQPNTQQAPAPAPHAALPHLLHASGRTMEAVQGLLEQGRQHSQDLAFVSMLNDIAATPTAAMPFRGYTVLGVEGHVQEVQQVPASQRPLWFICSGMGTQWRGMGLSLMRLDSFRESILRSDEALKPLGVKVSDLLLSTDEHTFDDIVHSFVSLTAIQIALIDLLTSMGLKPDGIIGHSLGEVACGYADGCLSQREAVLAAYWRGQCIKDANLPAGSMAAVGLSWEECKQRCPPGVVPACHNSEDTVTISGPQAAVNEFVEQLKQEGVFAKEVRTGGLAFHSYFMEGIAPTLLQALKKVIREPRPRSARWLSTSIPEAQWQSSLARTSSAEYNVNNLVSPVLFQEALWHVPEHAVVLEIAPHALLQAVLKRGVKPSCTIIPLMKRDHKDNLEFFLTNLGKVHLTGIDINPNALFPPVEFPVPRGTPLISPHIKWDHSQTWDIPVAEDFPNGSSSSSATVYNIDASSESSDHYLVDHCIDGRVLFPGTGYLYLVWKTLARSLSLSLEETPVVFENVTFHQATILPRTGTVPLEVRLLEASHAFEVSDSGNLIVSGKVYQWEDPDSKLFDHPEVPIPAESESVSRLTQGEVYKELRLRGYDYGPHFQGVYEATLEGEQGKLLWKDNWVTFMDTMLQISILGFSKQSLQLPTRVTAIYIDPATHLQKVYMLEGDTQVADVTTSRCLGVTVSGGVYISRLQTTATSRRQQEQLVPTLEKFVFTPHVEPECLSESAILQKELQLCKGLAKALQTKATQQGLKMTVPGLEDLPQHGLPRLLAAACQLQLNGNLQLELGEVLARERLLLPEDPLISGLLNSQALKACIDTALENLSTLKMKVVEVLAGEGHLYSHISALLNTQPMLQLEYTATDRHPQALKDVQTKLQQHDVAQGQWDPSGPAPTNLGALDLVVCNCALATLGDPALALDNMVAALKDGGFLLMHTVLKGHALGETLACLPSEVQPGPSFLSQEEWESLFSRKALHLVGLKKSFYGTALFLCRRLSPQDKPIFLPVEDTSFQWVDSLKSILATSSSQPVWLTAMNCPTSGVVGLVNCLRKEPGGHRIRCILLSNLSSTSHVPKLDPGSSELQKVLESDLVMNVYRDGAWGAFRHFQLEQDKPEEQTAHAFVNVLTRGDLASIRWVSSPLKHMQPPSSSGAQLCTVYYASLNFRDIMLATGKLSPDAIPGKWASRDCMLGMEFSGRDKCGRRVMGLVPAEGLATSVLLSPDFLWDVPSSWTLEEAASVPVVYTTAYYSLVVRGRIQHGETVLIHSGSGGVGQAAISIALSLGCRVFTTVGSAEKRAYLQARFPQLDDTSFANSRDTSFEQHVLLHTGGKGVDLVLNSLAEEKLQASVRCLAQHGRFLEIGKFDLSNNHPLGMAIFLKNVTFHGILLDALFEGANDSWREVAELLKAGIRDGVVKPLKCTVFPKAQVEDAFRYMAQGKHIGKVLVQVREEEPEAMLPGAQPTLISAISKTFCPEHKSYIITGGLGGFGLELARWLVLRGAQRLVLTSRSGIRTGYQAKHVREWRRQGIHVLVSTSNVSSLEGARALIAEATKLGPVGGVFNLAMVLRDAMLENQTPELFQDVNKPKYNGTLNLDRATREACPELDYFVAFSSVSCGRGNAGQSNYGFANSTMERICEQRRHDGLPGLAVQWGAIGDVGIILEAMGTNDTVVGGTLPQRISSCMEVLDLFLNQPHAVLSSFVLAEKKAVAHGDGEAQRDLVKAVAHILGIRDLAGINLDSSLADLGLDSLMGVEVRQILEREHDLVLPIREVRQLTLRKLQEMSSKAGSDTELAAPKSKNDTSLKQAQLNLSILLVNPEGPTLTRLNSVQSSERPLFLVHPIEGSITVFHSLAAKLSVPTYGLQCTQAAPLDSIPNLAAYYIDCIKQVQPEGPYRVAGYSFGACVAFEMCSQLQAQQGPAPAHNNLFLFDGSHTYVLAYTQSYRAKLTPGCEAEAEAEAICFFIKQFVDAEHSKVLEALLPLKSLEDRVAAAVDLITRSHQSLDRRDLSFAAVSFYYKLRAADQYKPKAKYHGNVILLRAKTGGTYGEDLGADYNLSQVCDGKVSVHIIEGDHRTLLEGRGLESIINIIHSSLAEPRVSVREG

Sequence of Fatty acid synthase (P12785 whole entry): as above

Structure (SMILES) | pIC50 [1] | inhibition [4] [%] | CC50 [2] [µM] | selectivity ratio [3]
C=C1C(=O)O[C@H](CCCCCCCC)[C@H]1C(=O)O (relative stereo) | 4.81 |  | 87.1 | 5.61
CCCCCC[C@H]1SC(=O)c2ccccc2[C@@H]1C(=O)O (relative stereo) | 4.43 | 40.4 | > 200 | 
CCCCCCC[C@H]1SC(=O)c2ccccc2[C@@H]1C(=O)O (relative stereo) | 4.57 | 43.1 | > 200 | 

Continued, in another order:

pIC50 [1] | inhibition [4] [%] | Structure (SMILES) | CC50 [2] [µM] | selectivity ratio [3]
5.08 | 77.5 | CCCCCCCCCC1SC(=O)c2ccccc2[C@@H]1C(=O)O (stereo not given in full) | 88.6 | 10.7
5.39 | 90.2 | CCCCCCCCCC[C@H]1SC(=O)c2ccccc2[C@@H]1C(=O)O (relative stereo) | 12 | 2.92
5.44 | 95.7 | CCCCCCCCCCC[C@H]1SC(=O)c2ccccc2[C@@H]1C(=O)O (relative stereo) | 9.67 | 2.67
4.91 | 50.9 | CCCCCCCC[C@H]1SC(=O)c2ccccc2[C@@H]1C(=O)O (relative stereo) | 84.2 | 6.83
